Measured values from article PMC7933930, “Development of a small molecule that corrects misfolding and increases secretion of Z α1‐antitrypsin” (EMBO Molecular Medicine, 2021).

Key:
CHO‐TET‐ON‐Z‐A1AT cells = assay: Tunicamycin sensitivity, cell viability (Cell Counting Kit‐8), cells expressing Z α1‐antitrypsin; assay type: cell-based; conditions: 10 μM GSK716, cells expressing Z α1‐antitrypsin, tunicamycin 36 h
Protocol: Figure 2 GSK716 inhibits polymerisation of Z α1‐antitrypsin in cell models of disease • A GSK716 was added to CHO‐TET‐ON‐Z‐A1AT cells (Ordóñez et al, 2013) with simultaneous induction of Z α1‐antitrypsin expression using doxycycline, and polymer load was quantified with the 2C1 monoclonal antibody that is specific to pathological polymers of α1‐antitrypsin (Miranda et al, 2010). […] Data were normalised to vehicle and a control compound from the GSK716 series at saturating concentration. […] It induced an approximately threefold increase in secreted levels of Z α1‐antitrypsin compared with vehicle control. This was apparent even after polymers had been allowed to form. Scale bar: 100 µm. Data presented as mean ± SD, n = 8 (secretion) and n = 6 (polymer inhibition). • E CHO tetracycline‐inducible cells expressing Z α1‐antitrypsin were induced with 0.5 μg/ml doxycycline for 48 h and treated with 10 μM GSK716. […] For every time point, NP‐40‐soluble and NP‐40‐insoluble fractions were separated and immunoprecipitated with the 2C1 mAb and resolved by 4–12% w/v SDS–PAGE and α1‐antitrypsin detected by immunoblotting. […] Cell viability was measured by Cell Counting Kit‐8. […] Samples were resolved by 4–12% w/v acrylamide SDS–PAGE and detected by autoradiography. • H The graphs show the effect of GSK716 on intracellular and extracellular Z α1‐antitrypsin (mean ± SEM, n = 2). […]

human serum albumin = human serum albumin (Homo sapiens, UniProt P02768); assay type: in vitro ADME
Sequence of human serum albumin (P02768 25-609): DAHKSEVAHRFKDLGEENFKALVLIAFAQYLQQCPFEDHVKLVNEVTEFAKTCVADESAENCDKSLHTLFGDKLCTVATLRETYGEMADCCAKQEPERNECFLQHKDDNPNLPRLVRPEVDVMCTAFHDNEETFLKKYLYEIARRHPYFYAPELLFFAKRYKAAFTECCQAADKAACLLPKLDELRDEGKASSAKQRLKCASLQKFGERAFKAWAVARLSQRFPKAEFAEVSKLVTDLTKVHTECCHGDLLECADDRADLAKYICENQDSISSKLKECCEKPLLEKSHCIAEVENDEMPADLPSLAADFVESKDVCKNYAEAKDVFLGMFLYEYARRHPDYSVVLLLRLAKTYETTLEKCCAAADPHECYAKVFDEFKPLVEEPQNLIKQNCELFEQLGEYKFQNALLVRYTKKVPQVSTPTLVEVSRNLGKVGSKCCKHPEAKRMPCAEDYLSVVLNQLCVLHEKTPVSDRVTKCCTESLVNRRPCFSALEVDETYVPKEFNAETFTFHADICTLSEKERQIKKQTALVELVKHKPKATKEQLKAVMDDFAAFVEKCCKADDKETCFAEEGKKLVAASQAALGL

Bile Salt Export Pump = Bile Salt Export Pump (Homo sapiens, UniProt O95342); assay: Off‐target panel: Bile Salt Export Pump; assay type: in vitro ADME; conditions: Inhibition, read-out: Mean (PXC50) (converted)
Sequence of Bile Salt Export Pump (O95342 whole entry, species assumed): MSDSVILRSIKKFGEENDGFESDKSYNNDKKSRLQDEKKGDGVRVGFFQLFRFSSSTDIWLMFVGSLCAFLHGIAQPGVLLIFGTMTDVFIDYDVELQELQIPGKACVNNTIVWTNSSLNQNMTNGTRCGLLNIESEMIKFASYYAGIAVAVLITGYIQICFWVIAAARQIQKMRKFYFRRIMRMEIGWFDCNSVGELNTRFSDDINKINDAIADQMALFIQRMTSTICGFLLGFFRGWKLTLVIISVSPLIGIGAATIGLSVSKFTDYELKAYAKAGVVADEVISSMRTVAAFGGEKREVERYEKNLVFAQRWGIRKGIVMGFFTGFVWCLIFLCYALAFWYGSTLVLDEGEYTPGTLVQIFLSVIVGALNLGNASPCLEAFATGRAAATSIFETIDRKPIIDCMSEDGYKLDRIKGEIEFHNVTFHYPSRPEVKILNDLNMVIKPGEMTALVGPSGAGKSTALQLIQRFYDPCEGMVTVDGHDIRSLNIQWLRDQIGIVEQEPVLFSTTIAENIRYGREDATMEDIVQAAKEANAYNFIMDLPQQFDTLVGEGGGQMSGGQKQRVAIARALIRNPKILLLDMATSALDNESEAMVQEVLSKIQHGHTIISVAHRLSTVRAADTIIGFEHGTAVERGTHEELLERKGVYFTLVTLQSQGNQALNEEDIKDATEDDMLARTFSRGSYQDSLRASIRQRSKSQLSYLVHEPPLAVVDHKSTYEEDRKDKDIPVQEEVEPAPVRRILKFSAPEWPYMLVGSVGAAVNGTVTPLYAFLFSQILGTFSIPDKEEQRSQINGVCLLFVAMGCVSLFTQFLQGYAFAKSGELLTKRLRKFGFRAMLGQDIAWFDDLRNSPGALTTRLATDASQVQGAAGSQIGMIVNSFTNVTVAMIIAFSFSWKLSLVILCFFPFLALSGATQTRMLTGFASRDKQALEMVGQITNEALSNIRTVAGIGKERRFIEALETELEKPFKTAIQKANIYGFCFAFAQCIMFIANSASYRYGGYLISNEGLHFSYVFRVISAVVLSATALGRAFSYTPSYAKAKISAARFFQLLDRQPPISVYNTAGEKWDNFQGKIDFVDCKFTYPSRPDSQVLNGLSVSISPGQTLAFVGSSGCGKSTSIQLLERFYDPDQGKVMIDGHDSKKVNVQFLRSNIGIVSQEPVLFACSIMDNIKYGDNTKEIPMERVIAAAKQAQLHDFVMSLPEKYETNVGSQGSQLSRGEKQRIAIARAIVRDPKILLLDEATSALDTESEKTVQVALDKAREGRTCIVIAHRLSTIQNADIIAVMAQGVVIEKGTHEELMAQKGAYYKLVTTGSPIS
Protocol: (§1) GSK716 selectivity and PK properties were profiled in order to investigate the suitability of GSK716 for progression into in vivo studies and the potential for taking it forward as a clinical candidate for testing in humans. Since GSK716 results in loss of inhibitory activity of α1‐antitrypsin, the effect of the compound was assessed on other closely related serpins. […] Furthermore, there were no off‐target effects in a panel of assays considered predictive of known safety liabilities that precluded further development of GSK716 (Table EV1).

Monoamine oxidase A = Monoamine oxidase A (Homo sapiens, UniProt P21397); assay: Off‐target panel: Monoamine oxidase A; assay type: biochemical; conditions: Inhibition, read-out: Mean (PXC50)
Sequence of Monoamine oxidase A (P21397 whole entry): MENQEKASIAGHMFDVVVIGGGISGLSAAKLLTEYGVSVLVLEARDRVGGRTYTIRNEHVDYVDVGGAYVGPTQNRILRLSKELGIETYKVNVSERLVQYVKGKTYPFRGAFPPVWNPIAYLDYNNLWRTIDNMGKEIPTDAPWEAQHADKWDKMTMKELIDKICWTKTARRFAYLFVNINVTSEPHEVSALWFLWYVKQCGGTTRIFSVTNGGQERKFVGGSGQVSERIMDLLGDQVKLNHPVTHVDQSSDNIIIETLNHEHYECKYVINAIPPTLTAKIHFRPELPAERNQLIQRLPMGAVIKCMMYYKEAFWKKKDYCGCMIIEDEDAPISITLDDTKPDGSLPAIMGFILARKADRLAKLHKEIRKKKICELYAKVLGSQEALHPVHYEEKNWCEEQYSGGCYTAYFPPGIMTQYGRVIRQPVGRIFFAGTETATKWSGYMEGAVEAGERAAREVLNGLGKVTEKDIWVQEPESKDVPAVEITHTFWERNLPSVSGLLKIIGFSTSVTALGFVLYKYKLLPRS
Protocol: as §1

Muscarinic M1 = target: T1, Muscarinic M1 (Homo sapiens, UniProt P11229); assay: Off‐target panel: Muscarinic M1 (DRX); assay type: cell-based
T1 sequence (P11229 1-460): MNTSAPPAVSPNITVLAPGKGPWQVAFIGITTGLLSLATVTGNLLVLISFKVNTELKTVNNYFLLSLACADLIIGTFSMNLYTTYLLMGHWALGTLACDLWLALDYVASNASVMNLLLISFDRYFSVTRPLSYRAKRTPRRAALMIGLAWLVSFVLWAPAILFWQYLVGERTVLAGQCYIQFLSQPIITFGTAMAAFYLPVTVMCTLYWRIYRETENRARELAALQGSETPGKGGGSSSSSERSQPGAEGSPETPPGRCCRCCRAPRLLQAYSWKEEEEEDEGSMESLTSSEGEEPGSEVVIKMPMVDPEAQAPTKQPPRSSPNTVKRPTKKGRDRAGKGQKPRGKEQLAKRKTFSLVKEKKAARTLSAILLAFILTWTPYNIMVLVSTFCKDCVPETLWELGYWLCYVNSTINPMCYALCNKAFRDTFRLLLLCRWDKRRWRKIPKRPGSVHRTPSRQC
Protocol: as §1

OPRM1 = OPRM1 (Homo sapiens, UniProt P35372); assay: Off‐target panel: OPRM1; assay type: cell-based
Sequence of OPRM1 (P35372 whole entry, species assumed): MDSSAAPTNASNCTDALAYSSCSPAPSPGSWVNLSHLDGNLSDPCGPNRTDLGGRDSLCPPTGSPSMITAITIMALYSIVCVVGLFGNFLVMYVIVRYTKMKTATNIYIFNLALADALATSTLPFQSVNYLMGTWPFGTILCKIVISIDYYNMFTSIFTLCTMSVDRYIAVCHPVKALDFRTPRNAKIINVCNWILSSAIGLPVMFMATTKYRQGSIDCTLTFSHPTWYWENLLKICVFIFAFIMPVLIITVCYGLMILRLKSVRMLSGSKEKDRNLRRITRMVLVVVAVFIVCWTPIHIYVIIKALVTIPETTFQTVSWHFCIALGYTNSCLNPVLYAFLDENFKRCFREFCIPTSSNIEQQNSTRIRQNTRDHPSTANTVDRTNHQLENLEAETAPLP
Protocol: as §1

## CCC[C@@H](NC(=O)c1cccc2c1CC(=O)N2)[C@@H](O)c1cccc(F)c1C [GSK716]
CHO‐TET‐ON‐Z‐A1AT cells
  sensitivity to tunicamycin (cell viability): restored sensitivity of Z α1‐antitrypsin expressing cells to that of the wild‐type control cells
Human serum albumin
  binding to human serum albumin: 84.2%
Bile Salt Export Pump
  IC50: 100 µM
Monoamine oxidase A
  IC50: > 100 µM
Muscarinic M1
  EC50: > 50.1 µM
  IC50: > 50.1 µM
OPRM1
  EC50: > 100 µM
